The text below walks through data of US20230107642A1 (Erasca, Inc., priority 2020, published 2023).

The target of this assay is T1, K-Ras G12C (Homo sapiens, UniProt P01116, G12C).
T1 construct: This protein contained 188 amino acids in total, including an N-terminal 6-Histidine tag; made in house; host or cells: E. coli BL21
In words: CAF assay (% CAF; method in Example 7, not in this part). Format: binding. The following applies: 10 uM compound, 1 h incubation.

With `C=CC(=O)N1CCN(c2nc(=O)n3c4c(c(-c5ccc(F)cc5F)c(Cl)cc24)SC[C@@H]3CC2CCN(C)CC2)[C@@H](C)C1` [Example 423, (3S)-7-((S)-4-acryloyl-2-methylpiperazin-1-yl)-9-chloro-10-(2,4-difluorophenyl)-3-((1-methylpiperidin-4-yl)methyl)-2H-[1,4]thiazino[2,3,4-ij]quinazolin-5(3H)-one], the “% CAF @ 10 uM, 1h” value turned out to be 34.1%.

In the case of `C=CC(=O)N1CCN(c2nc(=O)n3c4c(c(-c5c(F)cc(F)cc5F)c(Cl)cc24)SC[C@H]3CN2CCN(CC)CC2)[C@@H](C)C1` [Example 424, (R)-7-((S)-4-acryloyl-2-methylpiperazin-1-yl)-9-chloro-3-((4-ethylpiperazin-1-yl)methyl)-10-(2,4,6-trifluorophenyl)-2H-[1,4]thiazino[2,3,4-ij]quinazolin-5(3H)-one], the “% CAF @ 10 uM, 1h” value is 13.9%.

Consider `C=CC(=O)N1CCN(c2nc(=O)n3c4c(c(-c5ccc(F)cc5)c(C(F)(F)F)cc24)SC[C@@H]3CC2CCN(C3COC3)CC2)[C@@H](C)C1` [Example 425, (S)-7-((S)-4-acryloyl-2-methylpiperazin-1-fluorophenyl)-3-((1-(oxetan-3-yl)piperidin-4-yl)methyl)-9-(trifluoromethyl)-2H-[1,4]thiazino[2,3,4-ij]quinazolin-5(3H)-one], for which the “% CAF @ 10 uM, 1h” value is 94.7%.

With `C=CC(=O)N1CCN(c2nc(=O)n3c4c(c(-c5cc(Cl)c(F)cc5F)c(Cl)cc24)SC[C@@H]3CC2CCN(C3COC3)CC2)[C@@H](C)C1` [Example 426, (3S)-7-((S)-4-acryloyl-2-methylpiperazin-1-yl)-9-chloro-10-(5-chloro-2,4-difluorophenyl)-3-((1-(oxetan-3-yl)piperidin-4-yl)methyl)-2H-[1,4]thiazino[2,3,4-ij]quinazolin-5(3H)-one], the “% CAF @ 10 uM, 1h” value was determined as 82.8%.

Regarding `C=CC(=O)N1CCN(c2nc(=O)n3c4c(c(-c5ccc(F)cc5Cl)c(Cl)cc24)SCC3)[C@@H](C)C1` [Example 427, 7-((S)-4-acryloyl-2-methylpiperazin-1-yl)-9-chloro-10-(2-chloro-4-fluorophenyl)-2,3-dihydro-5H-[1,4]thiazino[2,3,4-ij]quinazolin-5-one], the “% CAF @ 10 uM, 1h” value was found to be 63.5%.

Take `C=CC(=O)N1CCN(c2nc(=O)n3c4c(c(-c5ccc(F)cc5)c(C(F)(F)F)cc24)SC[C@@H]3CC2CCN(CC(F)F)CC2)[C@@H](C)C1` [Example 428, (S)-7-((S)-4-acryloyl-2-methylpiperazin-1-yl)-3-((1-(2,2-difluoroethyl)piperidin-4-yl)methyl)-10-(4-fluorophenyl)-9-(trifluoromethyl)-2H-[1,4]thiazino[2,3,4-ij]quinazolin-5(3H)-one]: the “% CAF @ 10 uM, 1h” value is given as 79.6%.

`C=CC(=O)N1CCN(c2nc(=O)n3c4c(c(-c5ccc(F)cc5F)c(C(F)(F)F)cc24)S(=O)(=O)C[C@@H]3CC2CCN(CC(F)F)CC2)[C@@H](C)C1` [Example 429, (3S)-7-((S)-4-acryloyl-2-methylpiperazin-1-yl)-3-((1-(2,2-difluoroethyl)piperidin-4-yl)methyl)-10-(2,4-difluorophenyl)-9-(trifluoromethyl)-2H-[1,4]thiazino[2,3,4-ij]quinazolin-5(3H)-one 1,1-dioxide]: the “% CAF @ 10 uM, 1h” value is given as 61%.

In the case of `C=CC(=O)N1CCN(c2nc(=O)n3c4c(c(-c5ccc(F)cc5)c(C(F)(F)F)cc24)SC[C@@H]3CN2CCn3c(nnc3C(F)(F)F)C2)[C@@H](C)C1` [Example 430, (S)-7-((S)-4-acryloyl-2-methylpiperazin-1-yl)-10-(4-fluorophenyl)-9-(trifluoromethyl)-3-((3-(trifluoromethyl)-5,6-dihydro-[1,2,4]triazolo[4,3-a]pyrazin-7(8H)-yl)methyl)-2H-[1,4]thiazino[2,3,4-ij]quinazolin-5(3H)-one], the “% CAF @ 10 uM, 1h” value is 90.9%.

As to `C=CC(=O)N1CCN(c2nc(=O)n3c4c(c(-c5ccc(F)cc5F)c(C(F)(F)F)cc24)SC[C@@H](O)C3)[C@@H](C)C1` [Example 431, (3S)-8-((S)-4-acryloyl-2-methylpiperazin-1-yl)-11-(2,4-difluorophenyl)-3-hydroxy-10-(trifluoromethyl)-3,4-dihydro-2H,6H-[1,4]thiazepino[2,3,4-ij]quinazolin-6-one], the “% CAF @ 10 uM, 1h” value is recorded as 90%.

As for `C=CC(=O)N1CCN(c2nc(=O)n3c4c(c(-c5ccc(F)cc5F)c(Cl)cc24)SC[C@H]3COC2CN(CC)C2)[C@@H](C)C1` [Example 432, (3R)-7-((S)-4-acryloyl-2-methylpiperazin-1-yl)-9-chloro-10-(2,4-difluorophenyl)-3-(((1-ethylazetidin-3-yl)oxy)methyl)-2,3-dihydro-5H-[1,4]thiazino[2,3,4-ij]quinazolin-5-one], the “% CAF @ 10 uM, 1h” value was determined as 2.6%.

`C=CC(=O)N1CCN(c2nc(=O)n3c4c(c(-c5ccc(F)cc5F)c(Cl)cc24)SC2(CC2)C3)[C@@H](C)C1` [Example 433, 7′-((S)-4-acryloyl-2-methylpiperazin-1-yl)-9′-chloro-10′-(2,4-difluorophenyl)-3′H,5′H-spiro[cyclopropane-1,2′-[1,4]thiazino[2,3,4-ij]quinazolin]-5′-one]: the “% CAF @ 10 uM, 1h” value was found to be 25.3%.

As to `C=CC(=O)N1CCN(c2nc(=O)n3c4c(c(-c5ccc(F)cc5F)c(C(F)(F)F)cc24)S(=O)(=O)C[C@@H]3CC2CCN(CC)CC2)[C@@H](C)C1` [Example 434, (3S)-7-((S)-4-acryloyl-2-methylpiperazin-1-yl)-10-(2,4-difluorophenyl)-3-((1-ethylpiperidin-4-yl)methyl)-9-(trifluoromethyl)-2H-[1,4]thiazino[2,3,4-ij]quinazolin-5(3H)-one 1,1-dioxide], the “% CAF @ 10 uM, 1h” value is listed as 51.5%.

Turning to `C=CC(=O)N1CCN(c2nc(=O)n3c4c(c(-c5ccc(F)cc5F)c(C(F)(F)F)cc24)SC[C@@H]3COC)[C@@H](C)C1` [Example 435, (3S)-7-((S)-4-acryloyl-2-methylpiperazin-1-yl)-10-(2,4-difluorophenyl)-3-(methoxymethyl)-9-(trifluoromethyl)-2H-[1,4]thiazino[2,3,4-ij]quinazolin-5(3H)-one], the “% CAF @ 10 uM, 1h” value is 95.8%.

Consider `C=CC(=O)N1CCN(c2nc(=O)n3c4c(c(-c5ccc(F)cc5F)c(C(F)(F)F)cc24)S(=O)(=O)C[C@@H]3COC)[C@@H](C)C1` [Example 436, (3S)-7-((S)-4-acryloyl-2-methylpiperazin-1-yl)-10-(2,4-difluorophenyl)-3-(methoxymethyl)-9-(trifluoromethyl)-2H-[1,4]thiazino[2,3,4-ij]quinazolin-5(3H)-one 1,1-dioxide], for which the “% CAF @ 10 uM, 1h” value is 72.5%.

With `C=CC(=O)N1CCN(c2nc(=O)n3c4c(c(-c5ccc(F)cc5F)c(C(F)(F)F)cc24)SC[C@@H]3CC2CCOCC2)[C@@H](C)C1` [Example 437, (3S)-7-((S)-4-acryloyl-2-methylpiperazin-1-yl)-10-(2,4-difluorophenyl)-3-((tetrahydro-2H-pyran-4-yl)methyl)-9-(trifluoromethyl)-2H-[1,4]thiazino[2,3,4-ij]quinazolin-5(3H)-one], the “% CAF @ 10 uM, 1h” value worked out at 95.7%.

With `C=CC(=O)N1CCN(c2nc(=O)n3c4c(c(-c5ccc(F)cc5F)c(Cl)cc24)SC[C@@H]3CC2CCOCC2)[C@@H](C)C1` [Example 438, (3S)-7-((S)-4-acryloyl-2-methylpiperazin-1-yl)-9-chloro-10-(2,4-difluorophenyl)-3-((tetrahydro-2H-pyran-4-yl)methyl)-2H-[1,4]thiazino[2,3,4-ij]quinazolin-5(3H)-one], the “% CAF @ 10 uM, 1h” value was determined as 92.8%.

Take `O=C1CC2CN(c3nc(=O)n4c5c(c(-c6ccc(F)cc6F)c(C(F)(F)F)cc35)SCC4)CC(C1)N2C(=O)/C=C/C(F)F` [Example 439, (E)-7-(9-(4,4-difluorobut-2-enoyl)-7-oxo-3,9-diazabicyclo[3.3.1]nonan-3-yl)-10-(2,4-difluorophenyl)-9-(trifluoromethyl)-2,3-dihydro-5H-[1,4]thiazino[2,3,4-ij]quinazolin-5-one]: the “% CAF @ 10 uM, 1h” value is listed as 97%.

As for `O=C1CC2CN(c3nc(=O)n4c5c(c(-c6ccc(F)cc6F)c(C(F)(F)F)cc35)SCC4)CC(C1)N2C(=O)/C=C/C(F)(F)F` [Example 440, (E)-10-(2,4-difluorophenyl)-7-(7-oxo-9-(4,4,4-trifluorobut-2-enoyl)-3,9-diazabicyclo[3.3.1]nonan-3-yl)-9-(trifluoromethyl)-2,3-dihydro-5H-[1,4]thiazino[2,3,4-ij]quinazolin-5-one], the “% CAF @ 10 uM, 1h” value came to 96%.

As to `C=CC(=O)N1CCN(c2nc(=O)n3c4c(c(-c5ccc(F)c6cccnc56)c(Cl)cc24)SCC3)[C@@H](C)C1` [Example 441, 7-((S)-4-acryloyl-2-methylpiperazin-1-yl)-9-chloro-10-(5-fluoroquinolin-8-yl)-2,3-dihydro-5H-[1,4]thiazino[2,3,4-ij]quinazolin-5-one], the “% CAF @ 10 uM, 1h” value was 78.5%.

On to `C=CC(=O)N1CCN(c2nc(=O)n3c4c(c(-c5ccc(F)cc5F)c(C(F)(F)F)cc24)S[C@@H](CN(C)C)C3)[C@@H](C)C1` [Example 442, (2S)-7-((S)-4-acryloyl-2-methylpiperazin-1-yl)-10-(2,4-difluorophenyl)-2-((dimethylamino)methyl)-9-(trifluoromethyl)-2,3-dihydro-5H-[1,4]thiazino[2,3,4-ij]quinazolin-5-one], for which the “% CAF @ 10 uM, 1h” value worked out at 87%.

Consider `C=CC(=O)N1C[C@H](C)N(c2nc(=O)n3c4c(c(-c5cc(F)c(F)cc5F)c(C(F)(F)F)cc24)SC[C@@H]3CN2CCN(CC(F)F)CC2)C[C@H]1C` [Example 443, (3S)-7-((2S,5R)-4-acryloyl-2,5-dimethylpiperazin-1-yl)-3-((4-(2,2-difluoroethyl)piperazin-1-yl)methyl)-9-(trifluoromethyl)-10-(2,4,5-trifluorophenyl)-2H-[1,4]thiazino[2,3,4-ij]quinazolin-5(3H)-one], for which the “% CAF @ 10 uM, 1h” value was 48.2%.
